From US8314079B2, “Hyaluronic acid oligosaccharide fractions and drugs containing the same” (Seikagaku Corporation, priority 2000, dated 2012)

Tests used:
Hsp72 = assay: Expression of Hsp72 in K562 cells given heat shock, Western blotting; type: cell-based, human
Protocol: HA2, ΔHA4, HA6, HA84 and L4L4 were each added to a medium containing the aforementioned cells (37° C.) at a concentration of 1, 10 or 100 ng/mL. Then, the cells were immediately transferred into an environment at 43° C. to be given with heat shock and incubated for 20 minutes. Then, the cells were returned to 37° C., then further incubated for 2 hours and collected by centrifugation, and SDS-PAGE was performed in the same manner as in <1> mentioned above. Thereafter, Western blotting was performed by using anti-Hsp72 monoclonal antibodies (produced by Amersham) as primary antibodies and goat anti-rabbit IgG monoclonal antibodies (produced by Jackson Lab) as secondary antibodies to detect Hsp72. Hsp72 is one of the members of Hsp70 family and is the most typical one, and it is known that its expression is induced and promoted by stress.
The leftmost lane in FIG. 42a indicates the results of the detection of Hsp72 in a similar manner with giving no heat shock (37° C.) and addition of no test substance, and the rightmost lane indicates the results of detection of standard Hsp72 (Hsp72 derived from bacteria, bHsp72) in a similar manner.

HSF1 = assay: Phosphorylation (activation) of HSF1 in heat-shocked K562 cells, band shift 66 kDa to 81 kDa by SDS-PAGE/Western blotting; type: cell-based, human; conditions: for shift of a band of 66 kDa (HSF1 not phosphorylated) to a band of 81 kDa (phosphorylated HSF1): Experiment 1, 1, 10 or 100 ng/mL, heat shock 42° C., 20 minutes; for amount of HSF1 per se / band shift of HSF1 (66 kDa to 81 kDa): Experiment 2 (and comparative Experiment 3), 100 ng/mL, heat shock 43° C.
Source text: It is known that HSF1 (heat shock factor 1) protein is a transcription factor of Hsp70 (J. Biol. Chem., 271, pp. 3355-3358, 1996). Moreover, the HSF1 protein can be activated by phosphorylation, and this phosphorylation can be detected based on band shift in SDS-polyacrylamide gel electrophoresis (SDS-PAGE) (apparent molecular weight shifts from about 66 kDa to about 81 kDa). By utilizing this fact, the HA oligosaccharides of various sizes were allowed to act on the K562 cells given with stress, and the aforementioned band shift was detected to investigate the degree of the phosphorylation (activation) of HSF1.
HA4, ΔHA4, HA6, HA8, HA2-18 and HA 8-14 were each added to a medium containing the aforementioned cells at a concentration of 1, 10 or 100 ng/mL. Then, the cells were immediately transferred into an environment at 42° C. to be given with heat shock and incubated for 20 minutes. After the incubation, the cells were collected by centrifugation, and SDS-PAGE (gel concentration: 10%) was performed. Thereafter, Western blotting was performed by using anti-HSF1 monoclonal antibodies (produced by Stressgene) as primary antibodies and goat anti-mouse IgG monoclonal antibodies (produced by Jackson Lab) as secondary antibodies to detect the shift of a band of 66 kDa (HSF1 not phosphorylated) to a band of 81 kDa (phosphorylated HSF1).
In order to confirm the reproducibility of Experiment 1, the band shift was detected in the same manner as in Experiment 1 by using HA4, ΔHA4, HA8 and HA84 except that HA was added in a single kind of amount of 100 ng/mL, and the heat shock was given at 43° C. In FIG. 41, the first lane from the left indicates the result obtained with an extract of cells incubated at 37° C. (no addition of HA oligosaccharide), the second lane indicates the result obtained with an extract of cells subjected to 43° C. (no addition of HA oligosaccharide), and the first lane from the right indicates the result of detection of HSF1 (derived from bacteria) as a standard.
In order to investigate whether the action observed in Experiment 2 was specific to the saccharide chain basic structure of HA oligosaccharides, the following comparative experiment was performed by using chondroitin oligosaccharides. […] Therefore, it can be said that Ch is a substance extremely structurally analogous to HA, and the same shall also apply to the oligosaccharides thereof. • Saturated Ch tetrasaccharide (Ch4) • GlcAβ1-3GalNAcβ1-4GlcAβ1-3GalNAc • Saturated Ch hexasaccharide (Ch6) • GlcAβ1-3GalNAcβ1-4GlcAβ1-3GalNAcβ1-4GlcAβ1-3GalNAc • Saturated Ch octasaccharide (Ch8) • GlcAβ1-3GalNAcβ1-4GlcAβ1-3GalNAcβ1-4GlcAβ1-3GalNAcβ1-4GlcAβ1-3GalNAc
The same experiment as Experiment 2 was performed by using these oligosaccharides.

| Compound | expression of Hsp72 (Hsp72; K562 cells not given heat shock) | expression of Hsp72 (Hsp72; K562 cells, 1, 10 or 100 ng/mL, heat shock 43° C. 20 minutes, then 37° C. 2 hours) | shift of a band of 66 kDa (HSF1 not phosphorylated) to a band of 81 kDa (phosphorylated HSF1) (HSF1) | amount of HSF1 per se (HSF1) | band shift of HSF1 (66 kDa to 81 kDa) (HSF1) |
| --- | --- | --- | --- | --- | --- |
| CC(=O)NC1C(O)OC(CO)[C@@H](O)C1O[C@@H]1OC(C(=O)[O-])[C@@H](O[C@@H]2OC(CO)[C@@H](O)C(O[C@@H]3OC(C(=O)[O-])=CC(O)C3O)C2NC(C)=O)C(O)C1O.[Na+].[Na+] (stereo partly drawn) [ΔHA4, ΔGlcAβ1-3GlcNAcβ1-4GlcAβ1-3GlcNAc] | enhancement of the expression of Hsp72 by ΔHA4 was not observed | particularly strongly enhanced | shift to the 81 kDa band was observed depending on the amount of the added HA oligosaccharide | amounts of both HSF1 of 66 kDa and 81 kDa per se were also increased | band shift was observed |
| CC(=O)N[C@H]1[C@H](O[C@H]2[C@H](O)[C@@H](O)[C@H](O[C@H]3[C@H](O)[C@@H](CO)O[C@@H](O[C@H]4[C@H](O)[C@@H](O)[C@H](O[C@H]5[C@H](O)[C@@H](CO)OC(O)[C@@H]5NC(C)=O)O[C@@H]4C(=O)O)[C@@H]3NC(C)=O)O[C@@H]2C(=O)O)O[C@H](CO)[C@@H](O)[C@@H]1O[C@@H]1O[C@H](C(=O)O)[C@@H](O)[C@H](O)[C@H]1O.[Na].[Na].[Na] (stereo partly drawn) [HA6, sodium β-D-glucopyranosyluronate-[(1→3)-2-acetamido-2-deoxy-β-D-glucopyranosyl-(1→4)-(sodium β-D-glucopyranosyluronate)]2-(1→3)-2-acetamido-2-deoxy-D-glucopyranose] | – | – | shift to the 81 kDa band was observed depending on the amount of the added HA oligosaccharide | – | – |
| CC(=O)N[C@H]1[C@H](O[C@H]2[C@H](O)[C@@H](O)[C@H](O[C@H]3[C@H](O)[C@@H](CO)O[C@@H](O[C@H]4[C@H](O)[C@@H](O)[C@H](O[C@H]5[C@H](O)[C@@H](CO)O[C@@H](O[C@H]6[C@H](O)[C@@H](O)[C@H](O[C@H]7[C@H](O)[C@@H](CO)OC(O)[C@@H]7NC(C)=O)O[C@@H]6C(=O)O)[C@@H]5NC(C)=O)O[C@@H]4C(=O)O)[C@@H]3NC(C)=O)O[C@@H]2C(=O)O)O[C@H](CO)[C@@H](O)[C@@H]1O[C@@H]1O[C@H](C(=O)O)[C@@H](O)[C@H](O)[C@H]1O (stereo partly drawn) [HA8, sodium β-D-glucopyranosyluronate-[(1→3)-2-acetamido-2-deoxy-β-D-glucopyranosyl-(1→4)-(sodium β-D-glucopyranosyluronate)]3-(1→3)-2-acetamido-2-deoxy-D-glucopyranose] | – | – | inhibition of the band shift was observed | increase of the amount of HSF1 of 66 kDa was observed | band shift to the band of 81 kDa was not observed |
